{"source": "paper PMC10119282", "about": "“Molecular characterization of AIFM2/FSP1 inhibition by iFSP1-like molecules” (Cell Death & Disease, 2023)", "key": {"[1]": {"tested_on": "Pfa1 Gpx4−/− cells overexpressing murine FSP1 (mFSP1)", "assay": "Cell viability (Alamar blue), dose-response toxicity in Gpx4-knockout cells expressing mFSP1", "type": "cell-based", "procedure": "(§1) Cell Lines. 4-hydroxytamoxifen (TAM)-inducible Gpx4^−/− murine immortalized fibroblasts (Pfa1) were reported previously. These cells harbor two loxP-flanked Gpx4 alleles and stably express TAM inducible Cre recombinase allowing the genetic deletion of Gpx4 at will. For all experiments using Gpx4^−/− the well were treated with 4-hydroxitamoxifen (TAM) 1 µM. All cells were cultured with were cultured in DMEM-high glucose (4.5 g glucose/L) with 10% fetal bovine serum (FBS), Glutamax, and 1% penicillin/streptomycin (Gibco, Thermo Fischer) at 37 °C with 5% CO2 and verified to be negative for mycoplasma.\n(§2) Cell viability assays. Alamar Blue method: Cells were seeded on 96-well plates (2000 cells per well) and treated with the compounds RSL3, iFSP1 and (liproxstatin-1) after plating. Cell viability was assessed 48 h (unless stated otherwise) after treatment using Alamar Blue as an indicator of viable cells. Alamar blue solution was made by dissolving of 1 g resazurin sodium salt (Thermo Fischer) in 200 mL sterile PBS and sterile filtrated through a 0.22 µm filter. Stock solutions were stored at 4 °C. The working solution was made freshly by adding 200 µL of the stock solution to 25 mL growth media. After 2–4 h incubation time, viability was estimated by measuring the fluorescence using a 540/35 excitation filter and a 590/20 emission on a Spark® microplate reader (Tecan, Zürich, Switzerland). […]"}, "[2]": {"tested_on": "Pfa1 Gpx4−/− overexpressing chimeric FSP1 C6", "assay": "Cell viability (Alamar blue), chimeric construct C6", "type": "cell-based, murine", "procedure": "as §1, §2"}, "[3]": {"tested_on": "Pfa1 Gpx4−/− overexpressing chimeric FSP1 C3", "assay": "Cell viability (Alamar blue), chimeric construct C3", "type": "cell-based, murine", "conditions": "Mus musculus; chimeric construct C3 (human residues 121 to 180); x axis iFSP1 (μM); read-out: IC50 (dose-response toxicity)", "procedure": "as §1, §2"}, "[4]": {"tested_on": "Pfa1 Gpx4−/− overexpressing hFSP1 F360A", "assay": "Cell viability (Alamar blue), hFSP1 F360A", "type": "cell-based, murine", "procedure": "as §1\nCell viability assays. Alamar Blue method: Cells were seeded on 96-well plates (2000 cells per well) and treated with the compounds RSL3, iFSP1 and (liproxstatin-1) after plating. Cell viability was assessed 48 h (unless stated otherwise) after treatment using Alamar Blue as an indicator of viable cells. Alamar blue solution was made by dissolving of 1 g resazurin sodium salt (Thermo Fischer) in 200 mL sterile PBS and sterile filtrated through a 0.22 µm filter. Stock solutions were stored at 4 °C. The working solution was made freshly by adding 200 µL of the stock solution to 25 mL growth media. After 2–4 h incubation time, viability was estimated by measuring the fluorescence using a 540/35 excitation filter and a 590/20 emission on a Spark® microplate reader (Tecan, Zürich, Switzerland)."}, "[5]": {"tested_on": "Pfa1 Gpx4−/− overexpressing chimeric FSP1 C1", "assay": "Cell viability (Alamar blue), chimeric construct C1", "type": "cell-based, murine", "conditions": "Mus musculus; chimeric construct C1 (human residues 1 to 59); x axis iFSP1 (μM); read-out: IC50 (dose-response toxicity)", "procedure": "as §1, §2"}, "[6]": {"biological_target": "T1, recombinant purified hFSP1 F360L mutant (Homo sapiens, UniProt Q9BRQ8, F360L)", "T1 construct": "HisSUMO (cleaved yes); made in house; host or cells: E. coli BL21", "T1 sequence (Q9BRQ8 whole entry F360L, the tested form may be a part, canonical isoform)": "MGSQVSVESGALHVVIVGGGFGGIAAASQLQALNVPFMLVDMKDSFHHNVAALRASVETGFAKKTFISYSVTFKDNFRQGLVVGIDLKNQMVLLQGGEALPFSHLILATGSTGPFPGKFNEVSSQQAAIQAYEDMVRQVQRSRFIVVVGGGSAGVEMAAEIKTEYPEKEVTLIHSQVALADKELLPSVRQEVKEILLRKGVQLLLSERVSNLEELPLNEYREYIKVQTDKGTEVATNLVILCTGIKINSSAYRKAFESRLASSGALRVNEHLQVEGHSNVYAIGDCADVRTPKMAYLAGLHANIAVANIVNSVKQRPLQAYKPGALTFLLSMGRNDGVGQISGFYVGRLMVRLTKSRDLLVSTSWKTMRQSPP", "assay": "NADH consumption assay (340 nm), FSP1 enzyme activity and inhibition", "type": "biochemical", "conditions": "iFSP1 2 µM; menadione as substrate", "procedure": "(§3) FSP1 (human isoform 1, UniProt Q9BRQ8-1) WT (hFSP1 WT) and F360L (hFSP1 F360L) were expressed in E.coli BL21 as HisSUMO fusion protein. Cells were grown in lysogeny broth medium at 18 °C and induced with 0.5 mM isopropyl-β-thiogalactoside at a cell density A600 of 0.6. Cells were collected after overnight expression by centrifugation, resuspended in lysis buffer ([…], 50 mM Tris-HCl pH 8, 1 mM TCEP, 20 mM imidazole, protease inhibitor, DNase) and lysed by sonication. Cell debris was removed by centrifugation (30,000 × g) at 4 °C for 30 min, after which an IMAC purification was performed. […] IMAC eluates were analysed by SDS PAGE and concentrated to 15 mL (hFSP1 WT) and 5 mL (hFSP1 F360L), respectively. […] Pure fractions were pooled (C12—D11 for hFSP1 WT and C7—D4 for hFSP1 F360L), analysed by SDS-PAGE (Supplementary Fig. 4) and concentrated to 5.8 mL at 285.9 µM (hFSP1 WT) and 1.2 mL at 269.5 µM (FSP1 F360L), flash frozen in liquid N2 and stored at −80 °C.\n(§4) Enzyme reactions were performed in TBS buffer (50 mM TRIS pH 8, 250 mM NaCl) on a 96-well plate in a 100 µL final volume. […] Absorbance (340 nm) was recorded every 30 s on a Spark® microplate reader (Tecan, Zürich, Switzerland) in order to determine NADH consumption. […]"}, "[7]": {"biological_target": "T2, recombinant purified hFSP1 WT (Homo sapiens, UniProt Q9BRQ8)", "T2 construct": "HisSUMO (cleaved yes); made in house; host or cells: E. coli BL21", "T2 sequence (Q9BRQ8 whole entry)": "as the sequence (Q9BRQ8 whole entry F360L, the tested form may be a part, canonical isoform) above, with L360F counted along it", "assay": "NADH consumption assay (340 nm), FSP1 enzyme activity and inhibition", "type": "biochemical", "conditions": "iFSP1 2 µM; menadione as substrate", "procedure": "as §3, §4"}, "[8]": {"tested_on": "Pfa1 Gpx4−/− overexpressing chimeric FSP1 C5", "assay": "Cell viability (Alamar blue), chimeric construct C5", "type": "cell-based, murine", "conditions": "Mus musculus; chimeric construct C5 (human residues 241 to 300); x axis iFSP1 (μM); read-out: IC50 (dose-response toxicity)", "procedure": "as §1, §2"}}}
{"molecule": "Cc1ccc(-c2c(C#N)c(N)n3c(nc4ccccc43)c2C#N)cc1", "note": "[iFSP1]", "values": [{"measurement": "IC50", "setting": "[1]; Mus musculus, mFSP1 WT, Δ curve (no Lip-1), Alamar blue, x axis iFSP1 (μM)", "value": 7.48, "unit": "µM"}, {"measurement": "induction of ferroptosis", "setting": "[1]; murine isoform", "value": "could only induce ferroptosis in the cell line expressing the human isoform"}, {"measurement": "IC50", "setting": "[2]; Mus musculus, chimeric construct C6 (human residues 301 till 373), x axis iFSP1 (μM), read-out: IC50 (dose-response toxicity)", "value": 1.64, "unit": "µM"}, {"measurement": "induction of ferroptosis", "setting": "[2]; chimera C6", "value": "underwent ferroptosis upon iFSP1 treatment"}, {"measurement": "IC50", "setting": "[3]", "value": 8.71, "unit": "µM"}, {"measurement": "inhibitor activity (ferroptosis induction)", "setting": "[4]", "value": "abolishes the inhibitor activity"}, {"measurement": "IC50", "setting": "[4]; Mus musculus, x axis iFSP1 (μM), read-out: IC50 (dose-response toxicity)", "value": 5.62, "unit": "µM"}, {"measurement": "IC50", "setting": "[5]", "value": 9.41, "unit": "µM"}, {"measurement": "inhibition of enzyme activity (NADH consumption)", "setting": "[6]", "value": "just the activity of the WT protein was inhibited by iFSP1"}, {"measurement": "inhibition of enzyme activity (NADH consumption)", "setting": "[7]", "value": "inhibited"}, {"measurement": "IC50", "setting": "[8]", "value": 6.82, "unit": "µM"}]}
